Data: ChEMBL document CHEMBL1201862, “PubChem BioAssay data set” (2004)
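Each compound was tested at five concentrations against cells in 96-well plates for 48 hours. Abbreviation: GI50, concentration required for 50% inhibition of growth.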 The source made the active and inactive calls. No stated cut-off is given here; in the data, active = GI50 up to about 1.1 µM and inactive = higher.

Key:
Assay in all cases: growth of human tumour cells (NCI), 48 h
[1] = system: DLD-1
[2] = system: KM12
[3] = system: XF498
[4] = system: M14
[5] = system: MOLT-4
[6] = system: M19-MEL
[7] = system: RXF 631
[8] = system: LOX IMVI
[9] = system: SN12C
[10] = system: IGROV-1
[11] = system: SF-268
[12] = system: OVCAR-4
[13] = system: SNB-78
[14] = system: UACC-257
[15] = system: OVCAR-3
[16] = system: SW-620
[17] = system: HCC 2998
[18] = system: A549
[19] = system: SK-MEL-5
[20] = system: HCT-15
[21] = system: Malme-3M
[22] = system: CCRF-CEM
[23] = system: SF-539
[24] = system: U-251
[25] = system: CAKI-1
[26] = system: SNB-19
[27] = system: OVCAR-5
[28] = system: NCI-H460
[29] = system: SK-OV-3
[30] = system: K562
[31] = system: TK-10
[32] = system: KM-20L2
[33] = system: HOP-62
[34] = system: HOP-18
[35] = system: RPMI-8226
[36] = system: NCI-H23
[37] = system: UO-31
[38] = system: EKVX
[39] = system: DMS-273
[40] = system: OVCAR-8
[41] = system: ACHN
[42] = system: SF-295
[43] = system: NCI-H226
[44] = system: HL-60
[45] = system: HT-29
[46] = system: HCT-116
[47] = system: LXFL 529
[48] = system: HOP-92
[49] = system: COLO 205
[50] = system: UACC-62
[51] = system: 786-0
[52] = system: A498
[53] = system: NCI-H522
[54] = system: SNB-75
[55] = system: SK-MEL-28
[56] = system: DMS-114
[57] = system: SK-MEL-2
[58] = system: RXF 393
[59] = system: SR

## N#CC(C(=O)CCC(=O)Nc1cccc(C(F)(F)F)c1)c1ccc(Cl)cc1 (stereo not given)
[1]
  GI50: > 100 µM (inactive)
[2]
  GI50: > 100 µM (inactive)
[3]
  GI50: > 100 µM (inactive)
[4]
  GI50: > 100 µM (inactive)
[5]
  GI50: > 100 µM (inactive)
[6]
  GI50: > 100 µM (inactive)
[7]
  GI50: > 100 µM (inactive)
[8]
  GI50: > 100 µM (inactive)
[9]
  GI50: > 100 µM (inactive)
[10]
  GI50: > 100 µM (inactive)
[11]
  GI50: > 100 µM (inactive)
[12]
  GI50: > 100 µM (inactive)
[13]
  GI50: > 100 µM (inactive)
[14]
  GI50: > 100 µM (inactive)
[15]
  GI50: > 100 µM (inactive)
[16]
  GI50: > 100 µM (inactive)
[17]
  GI50: > 100 µM (inactive)
[18]
  GI50: > 100 µM (inactive)
[19]
  GI50: > 100 µM (inactive)
[20]
  GI50: > 100 µM
[21]
  GI50: > 100 µM (inactive)
[22]
  GI50: > 100 µM (inactive)
[23]
  GI50: > 100 µM (inactive)
[24]
  GI50: > 100 µM (inactive)
[25]
  GI50: > 100 µM (inactive)
[26]
  GI50: > 100 µM (inactive)
[27]
  GI50: > 100 µM (inactive)
[28]
  GI50: > 100 µM (inactive)
[29]
  GI50: > 100 µM (inactive)
[30]
  GI50: > 100 µM (inactive)
[31]
  GI50: > 100 µM (inactive)
[32]
  GI50: > 100 µM (inactive)
[33]
  GI50: > 100 µM (inactive)
[34]
  GI50: > 100 µM (inactive)
[35]
  GI50: > 100 µM (inactive)
[36]
  GI50: > 100 µM (inactive)
[37]
  GI50: > 100 µM (inactive)
[38]
  GI50: > 100 µM (inactive)
[39]
  GI50: > 100 µM (inactive)
[40]
  GI50: > 100 µM (inactive)
[41]
  GI50: > 100 µM (inactive)
[42]
  GI50: > 100 µM (inactive)
[43]
  GI50: > 100 µM (inactive)
[44]
  GI50: > 100 µM (inactive)
[45]
  GI50: > 100 µM (inactive)
[46]
  GI50: > 100 µM (inactive)
[47]
  GI50: > 100 µM (inactive)
[48]
  GI50: > 100 µM (inactive)
[49]
  GI50: > 100 µM (inactive)
[50]
  GI50: > 100 µM (inactive)
[51]
  GI50: > 100 µM (inactive)
[52]
  GI50: > 100 µM (inactive)
[53]
  GI50: > 100 µM (inactive)

## CCOC(=O)[C@]12C3C=CC(C3)C1C(=O)C1OC12 (stereo not given in full)
[1]
  GI50: > 100 µM (inactive)
[2]
  GI50: > 100 µM (inactive)
[3]
  GI50: > 100 µM (inactive)
[5]
  GI50: > 100 µM (inactive)
[6]
  GI50: > 100 µM (inactive)
[7]
  GI50: > 100 µM (inactive)
[8]
  GI50: > 100 µM (inactive)
[9]
  GI50: > 100 µM (inactive)
[10]
  GI50: > 100 µM (inactive)
[54]
  GI50: 81.5 µM (inactive)
[11]
  GI50: > 100 µM (inactive)
[12]
  GI50: > 100 µM (inactive)
[13]
  GI50: > 100 µM (inactive)
[14]
  GI50: > 100 µM (inactive)
[15]
  GI50: > 100 µM (inactive)
[16]
  GI50: > 100 µM (inactive)
[17]
  GI50: > 100 µM (inactive)
[18]
  GI50: > 100 µM (inactive)
[19]
  GI50: > 100 µM (inactive)
[20]
  GI50: > 100 µM
[21]
  GI50: > 100 µM (inactive)
[22]
  GI50: > 100 µM (inactive)
[55]
  GI50: > 100 µM (inactive)
[23]
  GI50: > 100 µM (inactive)
[24]
  GI50: > 100 µM (inactive)
[25]
  GI50: > 100 µM (inactive)
[26]
  GI50: > 100 µM (inactive)
[27]
  GI50: > 100 µM (inactive)
[56]
  GI50: > 100 µM (inactive)
[28]
  GI50: > 100 µM (inactive)
[29]
  GI50: > 100 µM (inactive)
[30]
  GI50: > 100 µM (inactive)
[31]
  GI50: > 100 µM (inactive)
[57]
  GI50: > 100 µM (inactive)
[33]
  GI50: > 100 µM (inactive)
[34]
  GI50: > 100 µM (inactive)
[35]
  GI50: > 100 µM (inactive)
[36]
  GI50: > 100 µM (inactive)
[37]
  GI50: > 100 µM (inactive)
[38]
  GI50: > 100 µM (inactive)
[39]
  GI50: > 100 µM (inactive)
[40]
  GI50: > 100 µM (inactive)
[41]
  GI50: > 100 µM (inactive)
[42]
  GI50: > 100 µM (inactive)
[43]
  GI50: > 100 µM (inactive)
[44]
  GI50: > 100 µM (inactive)
[45]
  GI50: > 100 µM (inactive)
[46]
  GI50: > 100 µM (inactive)
[47]
  GI50: > 100 µM (inactive)
[48]
  GI50: 0.109 µM (active)
[49]
  GI50: > 100 µM (inactive)
[50]
  GI50: > 100 µM (inactive)
[51]
  GI50: > 100 µM (inactive)
[52]
  GI50: > 100 µM (inactive)
[53]
  GI50: > 100 µM (inactive)

## OC1CCC[C@@H]1Sc1ccccc1 (stereo not given in full)
[1]
  GI50: > 100 µM (inactive)
[2]
  GI50: > 100 µM (inactive)
[3]
  GI50: > 100 µM (inactive)
[4]
  GI50: > 100 µM (inactive)
[5]
  GI50: > 100 µM (inactive)
[6]
  GI50: > 100 µM (inactive)
[7]
  GI50: > 100 µM (inactive)
[58]
  GI50: > 100 µM (inactive)
[8]
  GI50: > 100 µM (inactive)
[9]
  GI50: > 100 µM (inactive)
[54]
  GI50: > 100 µM (inactive)
[11]
  GI50: > 100 µM (inactive)
[12]
  GI50: > 100 µM (inactive)
[59]
  GI50: > 100 µM (inactive)
[13]
  GI50: > 100 µM (inactive)
[14]
  GI50: > 100 µM (inactive)
[15]
  GI50: > 100 µM (inactive)
[16]
  GI50: > 100 µM (inactive)
[17]
  GI50: > 100 µM (inactive)
[18]
  GI50: > 100 µM (inactive)
[19]
  GI50: > 100 µM (inactive)
[20]
  GI50: > 100 µM
[22]
  GI50: > 100 µM (inactive)
[55]
  GI50: > 100 µM (inactive)
[23]
  GI50: > 100 µM (inactive)
[24]
  GI50: > 100 µM (inactive)
[25]
  GI50: > 100 µM (inactive)
[26]
  GI50: > 100 µM (inactive)
[56]
  GI50: > 100 µM (inactive)
[28]
  GI50: > 100 µM (inactive)
[29]
  GI50: > 100 µM (inactive)
[30]
  GI50: > 100 µM (inactive)
[31]
  GI50: > 100 µM (inactive)
[32]
  GI50: > 100 µM (inactive)
[57]
  GI50: > 100 µM (inactive)
[33]
  GI50: > 100 µM (inactive)
[35]
  GI50: > 100 µM (inactive)
[36]
  GI50: > 100 µM (inactive)
[37]
  GI50: > 100 µM (inactive)
[38]
  GI50: > 100 µM (inactive)
[39]
  GI50: > 100 µM (inactive)
[40]
  GI50: > 100 µM (inactive)
[41]
  GI50: > 100 µM (inactive)
[42]
  GI50: > 100 µM (inactive)
[44]
  GI50: > 100 µM (inactive)
[46]
  GI50: > 100 µM (inactive)
[47]
  GI50: > 100 µM (inactive)
[48]
  GI50: > 100 µM (inactive)
[49]
  GI50: > 100 µM (inactive)
[50]
  GI50: 57.8 µM (inactive)
[51]
  GI50: > 100 µM (inactive)
[52]
  GI50: > 100 µM (inactive)
